In patent US5288723A, “A composition and a method of using veratridine and epinephrine as a local anesthetic” (priority 1991, dated 1994):
“Also recorded” adds a separate entry of the source.

Tests used:
[1] = system: rat sciatic nerve; experiment: Motor block of rat sciatic nerve in vivo (toe curling and/or foot dragging); design: species or system Male Sprague-Dawley rats
[2] = system: rat sciatic nerve; experiment: Sensory block of rat sciatic nerve in vivo (nocifensive withdrawal reflex to pinch of the foot pad); design: species or system Male Sprague-Dawley rats; settings: 2%=74 mM
[3] = Toxic signs (salivation) in rats after sciatic nerve injection; format: in vivo, Male Sprague-Dawley rats; settings: co-injection of VTD with EPI
Method: Male Sprague-Dawley rats (200-250 g) were divided into 4 groups of 10 each. 0.1 ml of VTD alone at 0.2, 0.5 or 0.7 mM or vehicle (saline) was injected at the depression between the femoral head and the hip. The same animals were injected with VTD with epinephrine (EPI, 1:200,000) one week later, using the previously uninjected leg. Motor and sensory functions were rated by the respective monitoring of toe curling and/or foot dragging, and by testing the nocifensive withdrawal reflex to pinch of the foot pad of the injected hindlimb. Saline alone affected neither function.

## CCN(CC)CC(=O)Nc1c(C)cccc1C [lidocaine]
[1]; 2%=74 mM
  Motor blockade duration: 75 min
  Motor blockade onset: 1.9 min
  Motor blockade, % of rats: 96%
  Motor blockade, fraction of rats: 216/224
[2]
  Sensory blockade duration: 78 min
  Sensory blockade onset: 1.3 min
  Sensory blockade, % of rats: 100%
  Sensory blockade, fraction of rats: 5/5

## CNC[C@H](O)c1ccc(O)c(O)c1 [EPI, epinephrine]
[3]
  Effect of EPI co-injection on VTD toxicity: decrease VTD-associated toxicity; also recorded: decreases the toxicity associated with higher concentrations of VTD

## CCCCN1CCCCC1C(=O)Nc1c(C)cccc1C (stereo not shown) [bupivacaine]
[1]; 0.75%=23 mM
  Motor blockade duration: 161 min
  Motor blockade onset: 4.8 min
  Motor blockade, % of rats tested: 86%
  Motor blockade, fraction of rats tested: 205/239
